Measurements: ChEMBL document CHEMBL1201862, “PubChem BioAssay data set” (2004)
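Test compounds were applied to cells in 96-well plates for 48 hours at 5 doses. Here, GI50 denotes the concentration required for 50% inhibition of growth.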 Active and inactive are the calls of the source. Cut-off read from the data, not from the text of the source: active = GI50 up to about 1.1 µM and inactive = higher.

Legend:
Assay in all cases: growth of human tumour cells (NCI), 48 h
A549 = test system: A549
ACHN = test system: ACHN
CCRF-CEM = test system: CCRF-CEM
EKVX = test system: EKVX
HCC 2998 = test system: HCC 2998
HCT-116 = test system: HCT-116
HL-60 = test system: HL-60
HOP-92 = test system: HOP-92
IGROV-1 = test system: IGROV-1
MDA-MB-435 = test system: MDA-MB-435
NCI-H226 = test system: NCI-H226
OVCAR-8 = test system: OVCAR-8
SF-295 = test system: SF-295
SK-MEL-5 = test system: SK-MEL-5
SNB-19 = test system: SNB-19
SNB-75 = test system: SNB-75
TK-10 = test system: TK-10
UACC-62 = test system: UACC-62
RPMI-8226 = test system: RPMI-8226
SR = test system: SR

Compound	GI50 (A549)	GI50 (ACHN)	GI50 (CCRF-CEM)	GI50 (EKVX)	GI50 (HCC 2998)	GI50 (HCT-116)	GI50 (HL-60)	GI50 (HOP-92)	GI50 (IGROV-1)	GI50 (MDA-MB-435)	GI50 (NCI-H226)	GI50 (OVCAR-8)	GI50 (SF-295)	GI50 (SK-MEL-5)	GI50 (SNB-19)	GI50 (SNB-75)	GI50 (TK-10)	GI50 (UACC-62)	GI50 (RPMI-8226)	GI50 (SR)
O=C1NN(Cc2ccccc2)C(=O)N2CCC[C@@H]12	> 100 µM (inactive)	> 100 µM (inactive)	> 100 µM (inactive)	> 100 µM (inactive)	> 100 µM (inactive)	> 100 µM (inactive)	> 100 µM (inactive)	> 100 µM (inactive)	> 100 µM (inactive)	> 100 µM (inactive)	0.0505 µM (active)	> 100 µM (inactive)	> 100 µM (inactive)	> 100 µM (inactive)	> 100 µM (inactive)	0.0179 µM (active)	> 100 µM (inactive)	> 100 µM (inactive)	–	–
CC(=O)O[C@H]1CC[C@@]2(C)C(=CC[C@@H]3[C@@H]2CC[C@]2(C)C(=N/O)/C(=C/c4ccc([N+](=O)[O-])cc4)C[C@@H]32)C1	4.55 µM (inactive)	6.22 µM (inactive)	3.76 µM (inactive)	–	–	3.97 µM (inactive)	2.33 µM (inactive)	11.9 µM (inactive)	12.8 µM (inactive)	3.32 µM (inactive)	7.66 µM (inactive)	–	3.74 µM (inactive)	1.69 µM (inactive)	2.94 µM (inactive)	10 µM (inactive)	8.43 µM (inactive)	1.76 µM (inactive)	1.06 µM (active)	–
CCn1c2ccccc2n2c(=O)c3c(c(C#N)c12)CCCC3	> 100 µM (inactive)	> 100 µM (inactive)	> 100 µM (inactive)	> 100 µM (inactive)	> 100 µM (inactive)	> 100 µM (inactive)	> 100 µM (inactive)	> 100 µM (inactive)	> 100 µM (inactive)	> 100 µM (inactive)	> 100 µM (inactive)	> 100 µM (inactive)	> 100 µM (inactive)	> 100 µM (inactive)	> 100 µM (inactive)	–	> 100 µM (inactive)	> 100 µM (inactive)	–	–
COC(=O)C1C2CC3C(OC(=O)C31)C2OC(=O)[C@](OC)(c1ccccc1)C(F)(F)F (some centres not stated)	> 100 µM (inactive)	> 100 µM (inactive)	> 100 µM (inactive)	> 100 µM (inactive)	> 100 µM (inactive)	> 100 µM (inactive)	> 100 µM (inactive)	> 100 µM (inactive)	> 100 µM (inactive)	–	> 100 µM (inactive)	> 100 µM (inactive)	–	> 100 µM (inactive)	> 100 µM (inactive)	> 100 µM (inactive)	> 100 µM (inactive)	–	> 100 µM (inactive)	> 100 µM (inactive)
CNc1nc2c(C)ccc3nc(N(C)C)nc-3c2n1C	> 10 µM (inactive)	> 10 µM (inactive)	> 10 µM (inactive)	> 10 µM (inactive)	> 10 µM (inactive)	> 10 µM (inactive)	–	> 10 µM (inactive)	> 10 µM (inactive)	> 10 µM (inactive)	> 10 µM (inactive)	> 10 µM (inactive)	> 10 µM (inactive)	> 10 µM (inactive)	> 10 µM (inactive)	> 10 µM (inactive)	> 10 µM (inactive)	–	> 10 µM (inactive)	–
COc1ccc(C2NC3=C(CCCC3)C3(C#N)C(=O)N=C(N)C23C#N)cc1 (configuration not stated)	> 100 µM (inactive)	> 100 µM (inactive)	23 µM (inactive)	> 100 µM (inactive)	> 100 µM (inactive)	> 100 µM (inactive)	> 100 µM (inactive)	> 100 µM (inactive)	> 100 µM (inactive)	> 100 µM (inactive)	> 100 µM (inactive)	> 100 µM (inactive)	> 100 µM (inactive)	> 100 µM (inactive)	> 100 µM (inactive)	–	> 100 µM (inactive)	> 100 µM (inactive)	> 100 µM (inactive)	–
CCN(CC)CCCN1CCc2c([nH]c3ccccc23)C1c1cccnc1 (configuration not stated)	> 100 µM (inactive)	> 100 µM (inactive)	> 100 µM (inactive)	> 100 µM (inactive)	> 100 µM (inactive)	> 100 µM (inactive)	> 100 µM (inactive)	29.2 µM (inactive)	> 100 µM (inactive)	–	> 100 µM (inactive)	> 100 µM (inactive)	> 100 µM (inactive)	59.8 µM (inactive)	> 100 µM (inactive)	> 100 µM (inactive)	> 100 µM (inactive)	> 100 µM (inactive)	> 100 µM (inactive)	> 100 µM (inactive)
COc1ccccc1/C=C1\CCC(CNc2ccc(Cl)cc2)C1=O (configuration not stated)	5.16 µM (inactive)	0.59 µM (active)	1.68 µM (inactive)	5.15 µM (inactive)	6.35 µM (inactive)	4.38 µM (inactive)	2.18 µM (inactive)	16.4 µM (inactive)	5.83 µM (inactive)	–	14 µM (inactive)	3.46 µM (inactive)	2.49 µM (inactive)	3.16 µM (inactive)	11.8 µM (inactive)	15 µM (inactive)	5.18 µM (inactive)	0.36 µM (active)	1.34 µM (inactive)	1.76 µM (inactive)
CC/C(C)=C1\CCC(CN2CCOCC2)C1=O (configuration not stated)	21.2 µM (inactive)	7.18 µM (inactive)	7.91 µM (inactive)	18.7 µM (inactive)	24.2 µM (inactive)	13.9 µM (inactive)	15.1 µM (inactive)	14.6 µM (inactive)	20.4 µM (inactive)	–	82.2 µM (inactive)	20.7 µM (inactive)	> 100 µM (inactive)	28.5 µM (inactive)	47.9 µM (inactive)	25.2 µM (inactive)	14.5 µM (inactive)	17.6 µM (inactive)	2.21 µM (inactive)	11.2 µM (inactive)
COC(=O)C(CC1=C(O)Nc2ccccc2N1)/C(=N/NC(N)=O)C(=O)Nc1ccccc1C (configuration not stated)	> 100 µM (inactive)	> 100 µM (inactive)	21.7 µM (inactive)	> 100 µM (inactive)	> 100 µM (inactive)	18.2 µM (inactive)	> 100 µM (inactive)	44 µM (inactive)	> 100 µM (inactive)	–	> 100 µM (inactive)	> 100 µM (inactive)	> 100 µM (inactive)	93.5 µM (inactive)	> 100 µM (inactive)	> 100 µM (inactive)	> 100 µM (inactive)	> 100 µM (inactive)	21 µM (inactive)	20.8 µM (inactive)
COc1ccc(CC2C3=C(CCCC3)CCN2C)cc1 (configuration not stated)	> 100 µM (inactive)	> 100 µM (inactive)	> 100 µM (inactive)	> 100 µM (inactive)	45.4 µM (inactive)	58.2 µM (inactive)	29.4 µM (inactive)	–	> 100 µM (inactive)	> 100 µM (inactive)	> 100 µM (inactive)	> 100 µM (inactive)	> 100 µM (inactive)	> 100 µM (inactive)	> 100 µM (inactive)	55.2 µM (inactive)	> 100 µM (inactive)	65.6 µM (inactive)	> 100 µM (inactive)	–
